Earlier results, collected in US20180203025A1, “HDL THERAPY MARKERS” (Cerenis Therapeutics Holding SA, priority 2014, published 2018).
Where two headings read alike, the source gives them in different places.

Legend:
[1] = compared to atorvastatin; cited from earlier work
[2] = associated to statin; cited from earlier work
[3] = ACS patients, cited from earlier work
[4] = added to 80 mg atorvastatin, cited from earlier work

COc1cc(F)c(C(C)C)cc1-c1ccc(C(F)(F)F)cc1CN1C(=O)O[C@H](c2cc(C(F)(F)F)cc(C(F)(F)F)c2)[C@@H]1C [anacetrapib]
HDL-cholesterol increase [1]: about 140% | LDL-cholesterol lowering [1]: 40% | further decrease of LDL-cholesterol [2]: about 40%

CCC(CC)CC1(C(=O)Nc2ccccc2SC(=O)C(C)C)CCCCC1 [dalcetrapib]
ApoA-I increase [3]: 18% | HDL-cholesterol increase [3]: about 30% | LDL-cholesterol [3]: no changes in LDL-cholesterol | clinical benefit compared to placebo ([3]; interim analysis): no benefit | LDL-cholesterol [2]: remains unchanged

Cc1cc(C)c2c(c1)[C@@H](N(Cc1cc(C(F)(F)F)cc(C(F)(F)F)c1)c1nnn(C)n1)CCCN2C[C@H]1CC[C@H](C(=O)O)CC1 [evacetrapib]
further decrease of LDL-cholesterol [2]: about 40%

CCOC(=O)N1c2ccc(C(F)(F)F)cc2[C@@H](N(Cc2cc(C(F)(F)F)cc(C(F)(F)F)c2)C(=O)OC)C[C@H]1CC [torcetrapib]
HDL-cholesterol increase ([4]; compared to Atorvastatin alone): 80% | LDL-cholesterol decrease ([4]; compared to Atorvastatin alone): 25% | mortality and morbidity ([4]; 15 067 patients): increase of the mortality and morbidity | further decrease of LDL-cholesterol [2]: about 40%
